This is an account of results in US9439986B2, “Tricarbonyl technetium-99m, rhenium-185/187, or rhenium-188 labeled cyclic RGD derivatives and uses thereof” (BIO IMAGING KOREA CO., LTD., priority 2010, dated 2016).

One series deals with subcutaneous tumor. Kind of series: Tumor growth suppression and treatment performance of rhenium-188 labeled derivative in tumor model mice (I). It is filed as in vivo. The procedure:
Treatment effect experiment was conducted to investigate the ability of tricarbonyl rhenium-188 labeled cyclic RGD derivative to suppress tumor growth.
The rhenium-188 labeled cyclic RGD derivative of Example 5 was injected once in a week, for four weeks. The models to determine treatment effect were divided into small radioactive injection group (300 μCi) and large radioactive injection group (600 μCi), and at the same time, a control group injected with sterilized saline and a comparative group injected with 100 μg of cyclic RGD (cRGDyV) intraperitoneally everyday, were also set. The compound of Example 11 and the sterilized saline were administered through tail veins. The CT images was taken once a week, to visually measure the growth and size of the subcutaneous tumor. The tumor was actually measured three times a week using Vernier Calipers, and the weights of the animal models were also consistently measured three times a week for total 4 weeks.

The next series concerns tumor. The method, then:
The small-animal SPECT/CT was used to acquire static imaging of the mice for 60 minutes after the injection. The imaging protocol consisted of repetition of emission and transmission as follows: [10 min emission+transmission]×6 times

For a further series, the system named is integrin αvβ3. Particulars: cRGDyV 18 mg/Kg tail vein 10 minutes before; at 25 minutes post-injection; compared to images of FIG. 6. The procedure:
Upon injection, SPECT/CT images were acquired under following conditions:
The animal models were anesthetized with 2% isofluorane gas for the duration of image acquisition time, and the tumor size of the animal models was 0.4 cc. CT images were taken under condition of 45 v, 178 μA for 4 min and 30 sec., and acquired at 10 minute intervals for total 9 times (i.e., for 90 minutes after the injection).

[1] abbreviates: 100 μg cyclic RGD (cRGDyV) intraperitoneally everyday, initial tumor size 0.7 cc.
[2] abbreviates: 600 μCi once a week for four weeks.
Where [3] appears, read: 600 μCi once a week, 0.3 cc at initial measurement.

Consider cRGDyV [cyclic RGD], for which the “rate of tumor growth compared with sterilized saline group” value with subcutaneous tumor (100 μg cyclic RGD (cRGDyV) intraperitoneally everyday) is recorded as “no meaningful difference”. Further, the “weight of animals after treatment” value with subcutaneous tumor (100 μg cyclic RGD (cRGDyV) intraperitoneally everyday, initial measurement 23 g) was 30 g. Further, in the series with subcutaneous tumor (setting [1]), the “tumor size at 2 week” value is given as 3.9 cc, the “tumor size at 3 week” value is 8.0 cc and the “tumor size at last week of treatment” value was 12.9 cc.

Take “cyclic{(tricarbonyl-[^185/187Re]rhenium-N-α-bis-hydroxycarbonyl methyl-alginine-glycine-aspartic acid-D-phenylalanine} [Example 6]”: the “tumor size after three days” value in the series on tumor (600 μCi/200 μL single injection, initial size 0.3 cc, non-administered model 0.65 cc) was 0.35 cc.

As to “(tricarbonyl-[^99mTc]technetium-N-α-bis-hydroxycarbonyl methyl-aspartic acid)-[cyclic (lysine-alginine-glycine-aspartic acid-D-phenylalanine)]2 [Example 15]”, in the series with integrin αvβ3, the “reduction of absorption in tumor after administration of cyclic RGD (cRGDyV)” value is no less than 94%.

“(tricarbonyl [^188Re]rhenium-N-α-bis-hydroxycarbonyl methyl-aspartic acid)-[cyclic(lysine-alginine-glycine-aspartic acid-D-phenylalanine)]2 [Example 12]”: in the series with tumor (600 μCi/200 μL), the “CD31 blood vessel staining of tumor tissue slice” value is recorded as “no clear vessels were observed” and the “integrin αvβ3 distribution in tumor tissue slice using Q-dot RGD derivatives” value is given as “most integrin was damaged”. Further, the “reduction of uptake rate in tumor (SPECT with the compound of Example 15) versus non-administered model” value in the series with tumor (600 μCi/200 μL, SPECT after three days) turned out to be 59%. Further, the “distribution of blood vessels around the tumor (photographs of removed tumors)” value in the series with tumor (600 μCi/200 μL, versus non-administered model) is “noticeably less distribution of ambient blood vessels”.

Regarding “cyclic{(tricarbonyl-[^188Re]rhenium-N-α-bis-hydroxycarbonyl methyl-glycine-CONH(CH2CH2O)4CH2CH2CONH-lysine)-alginine-glycine-aspartic acid-D-phenylalanine} [Example 11]”, the “tumor growth suppression ability compared to sterilized saline or cyclic RGD groups” value in the series with subcutaneous tumor (300 μCi once a week for four weeks) is on record as “approximately 50%”. Moreover, the “tumor size when the treatment for four weeks was ended” value with subcutaneous tumor (300 μCi tail vein once a week for four weeks, initial tumor size 0.23 cc) came out at 0.66 cc. Further, in the series on subcutaneous tumor (setting [2]), the “tumor growth suppression ability compared to low radiation energy treatment group (300 μCi)” value is reported as “approximately 79%”; the “tumor growth suppression ability compared to sterilized saline and cyclic RGD groups” value is listed as “approximately 90%”. In the series with subcutaneous tumor (600 μCi once a week for four weeks, 0.3 cc at initial measurement), the “tumor size at the end of the treatment” value stood at 1.4 cc. Also, in the series on subcutaneous tumor (setting [3]), the “tumor size at 3 week” value is 0.7 cc and the “tumor size at week 2” value is recorded as 0.3 cc.
